Columns and labels:
Set-up in all cases: scale not given: the % may be the effect or the level left
[1] = system: Tyrosine-protein kinase ABL1 (Homo sapiens), P00519 [F317I]; assay: Inhibition of DNA-tagged phosphorylated human ABL1 F317I mutant assessed as percent of control at 50000 nM by qPCR analysis relative to control
[2] = system: Receptor-type tyrosine-protein kinase FLT3 (Homo sapiens), P36888 [R834Q]; assay: Inhibition of DNA-tagged human FLT3 R834Q mutant assessed as percent of control at 50000 nM by qPCR analysis relative to control
[3] = biological target: Receptor-interacting serine/threonine-protein kinase 2 (Homo sapiens) (UniProt O43353); assay: Inhibition of DNA-tagged human RIPK2 assessed as percent of control at 50000 nM by qPCR analysis relative to control
[4] = system: Mast/stem cell growth factor receptor Kit (Homo sapiens), P10721 [D816V]; assay: Inhibition of DNA-tagged human KIT D816V mutant assessed as percent of control at 50000 nM by qPCR analysis relative to control
[5] = biological target: Hepatocyte growth factor receptor (Homo sapiens) (UniProt P08581); assay: Inhibition of DNA-tagged human MET assessed as percent of control at 50000 nM by qPCR analysis relative to control
[6] = biological target: Serine/threonine-protein kinase ULK3 (Homo sapiens) (UniProt Q6PHR2); assay: Inhibition of DNA-tagged human ULK3 assessed as percent of control at 50000 nM by qPCR analysis relative to control
[7] = biological target: Serine/threonine-protein kinase MRCK alpha (Homo sapiens) (UniProt Q5VT25); assay: Inhibition of DNA-tagged human MRCKA assessed as percent of control at 50000 nM by qPCR analysis relative to control
Sequence of Serine/threonine-protein kinase MRCK alpha (Homo sapiens) (Q5VT25 whole entry): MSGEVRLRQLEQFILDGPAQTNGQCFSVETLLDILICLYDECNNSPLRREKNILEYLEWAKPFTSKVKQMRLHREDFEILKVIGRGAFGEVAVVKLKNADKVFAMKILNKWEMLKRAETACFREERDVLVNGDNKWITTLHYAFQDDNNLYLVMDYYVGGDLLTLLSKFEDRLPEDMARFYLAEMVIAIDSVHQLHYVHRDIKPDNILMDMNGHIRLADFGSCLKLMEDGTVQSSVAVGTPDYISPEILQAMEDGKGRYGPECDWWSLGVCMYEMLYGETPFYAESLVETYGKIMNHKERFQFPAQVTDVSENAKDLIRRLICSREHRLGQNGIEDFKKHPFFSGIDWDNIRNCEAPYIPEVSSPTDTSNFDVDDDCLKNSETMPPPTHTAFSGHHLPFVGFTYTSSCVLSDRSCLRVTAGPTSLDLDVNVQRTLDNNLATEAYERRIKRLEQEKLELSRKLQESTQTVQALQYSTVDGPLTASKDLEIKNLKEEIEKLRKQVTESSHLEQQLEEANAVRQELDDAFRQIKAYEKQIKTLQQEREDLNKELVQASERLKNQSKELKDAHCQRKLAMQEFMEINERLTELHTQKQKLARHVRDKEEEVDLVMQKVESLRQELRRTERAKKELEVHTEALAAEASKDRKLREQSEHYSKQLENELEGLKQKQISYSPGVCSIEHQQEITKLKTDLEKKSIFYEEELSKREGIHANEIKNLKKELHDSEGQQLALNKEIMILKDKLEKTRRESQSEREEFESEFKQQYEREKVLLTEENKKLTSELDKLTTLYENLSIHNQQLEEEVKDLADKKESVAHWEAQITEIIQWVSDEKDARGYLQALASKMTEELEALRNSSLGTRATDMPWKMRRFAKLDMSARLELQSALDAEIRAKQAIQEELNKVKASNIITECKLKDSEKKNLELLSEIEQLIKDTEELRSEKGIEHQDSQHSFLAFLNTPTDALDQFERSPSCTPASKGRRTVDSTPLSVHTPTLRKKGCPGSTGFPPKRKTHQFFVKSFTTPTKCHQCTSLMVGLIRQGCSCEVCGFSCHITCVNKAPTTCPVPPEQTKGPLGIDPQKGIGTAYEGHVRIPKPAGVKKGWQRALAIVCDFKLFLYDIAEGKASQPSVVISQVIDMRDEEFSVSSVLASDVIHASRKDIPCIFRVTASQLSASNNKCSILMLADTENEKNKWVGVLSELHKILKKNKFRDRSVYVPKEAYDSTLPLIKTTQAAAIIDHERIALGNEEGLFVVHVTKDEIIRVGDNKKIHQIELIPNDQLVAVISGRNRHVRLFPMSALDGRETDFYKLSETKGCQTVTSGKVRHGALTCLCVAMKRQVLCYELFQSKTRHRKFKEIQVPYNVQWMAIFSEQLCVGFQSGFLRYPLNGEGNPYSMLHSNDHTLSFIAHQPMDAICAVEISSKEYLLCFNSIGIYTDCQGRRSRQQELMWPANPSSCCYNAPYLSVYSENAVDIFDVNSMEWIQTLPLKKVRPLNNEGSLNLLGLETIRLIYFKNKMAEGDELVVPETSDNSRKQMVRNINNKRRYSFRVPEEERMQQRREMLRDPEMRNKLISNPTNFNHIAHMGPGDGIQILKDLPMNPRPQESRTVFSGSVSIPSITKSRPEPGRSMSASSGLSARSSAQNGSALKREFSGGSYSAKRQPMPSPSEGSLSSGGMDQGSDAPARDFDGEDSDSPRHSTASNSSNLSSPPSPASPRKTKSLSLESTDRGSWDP

[8] = biological target: Maternal embryonic leucine zipper kinase (Homo sapiens) (UniProt Q14680); assay: Inhibition of DNA-tagged human MELK assessed as percent of control at 50000 nM by qPCR analysis relative to control
[9] = biological target: Activin receptor type-2A (Homo sapiens) (UniProt P27037); assay: Inhibition of DNA-tagged human ACVR2A assessed as percent of control at 50000 nM by qPCR analysis relative to control
[10] = biological target: Ribosomal protein S6 kinase alpha-5 (Homo sapiens) (UniProt O75582); assay: Inhibition of DNA-tagged human N-terminal RPS6KA5 kinase domain 1 assessed as percent of control at 50000 nM by qPCR analysis relative to control
Sequence of Ribosomal protein S6 kinase alpha-5 (Homo sapiens) (O75582 whole entry, looked up, the tested form may be a part): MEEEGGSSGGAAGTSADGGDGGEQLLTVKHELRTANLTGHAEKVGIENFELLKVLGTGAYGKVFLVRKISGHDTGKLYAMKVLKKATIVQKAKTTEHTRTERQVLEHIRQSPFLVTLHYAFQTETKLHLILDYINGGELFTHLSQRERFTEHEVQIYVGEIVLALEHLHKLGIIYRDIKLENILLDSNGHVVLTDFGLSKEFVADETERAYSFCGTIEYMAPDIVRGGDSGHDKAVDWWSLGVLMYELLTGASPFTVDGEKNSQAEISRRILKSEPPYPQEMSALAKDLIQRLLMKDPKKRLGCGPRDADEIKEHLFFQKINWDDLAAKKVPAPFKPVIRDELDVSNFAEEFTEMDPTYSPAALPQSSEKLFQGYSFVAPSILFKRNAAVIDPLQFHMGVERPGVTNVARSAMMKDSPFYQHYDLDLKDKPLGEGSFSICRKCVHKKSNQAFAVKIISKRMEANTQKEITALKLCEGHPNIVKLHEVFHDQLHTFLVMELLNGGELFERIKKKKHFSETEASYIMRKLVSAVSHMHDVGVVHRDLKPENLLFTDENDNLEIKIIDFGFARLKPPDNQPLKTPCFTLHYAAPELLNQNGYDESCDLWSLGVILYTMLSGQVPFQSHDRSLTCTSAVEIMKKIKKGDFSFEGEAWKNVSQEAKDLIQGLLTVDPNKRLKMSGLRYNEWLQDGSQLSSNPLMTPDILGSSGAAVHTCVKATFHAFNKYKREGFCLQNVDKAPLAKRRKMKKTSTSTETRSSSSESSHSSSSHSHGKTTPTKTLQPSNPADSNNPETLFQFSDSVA

[11] = biological target: Cyclin-dependent kinase 13 (Homo sapiens) (UniProt Q14004); assay: Inhibition of DNA-tagged human CDC2L5 assessed as percent of control at 50000 nM by qPCR analysis relative to control
[12] = biological target: NT-3 growth factor receptor (Homo sapiens) (UniProt Q16288); assay: Inhibition of DNA-tagged human TRKC assessed as percent of control at 50000 nM by qPCR analysis relative to control
[13] = system: Tyrosine-protein kinase ABL1 (Homo sapiens), P00519 [F317L]; assay: Inhibition of DNA-tagged phosphorylated human ABL1 F317L mutant assessed as percent of control at 50000 nM by qPCR analysis relative to control
[14] = biological target: Serine/threonine-protein kinase TNNI3K (Homo sapiens) (UniProt Q59H18); assay: Inhibition of DNA-tagged human TNNI3K assessed as percent of control at 50000 nM by qPCR analysis relative to control
[15] = biological target: Ankyrin repeat and protein kinase domain-containing protein 1 (Homo sapiens) (UniProt Q8NFD2); assay: Inhibition of DNA-tagged human ANKK1 assessed as percent of control at 50000 nM by qPCR analysis relative to control
[16] = biological target: Ribosomal protein S6 kinase alpha-4 (Homo sapiens) (UniProt O75676); assay: Inhibition of DNA-tagged human C-terminal RPS6KA4 kinase domain 2 assessed as percent of control at 50000 nM by qPCR analysis relative to control
[17] = system: Tyrosine-protein kinase ABL1 (Homo sapiens), P00519 [Y253F]; assay: Inhibition of DNA-tagged phosphorylated human ABL1 Y253F mutant assessed as percent of control at 50000 nM by qPCR analysis relative to control
[18] = biological target: Serine/threonine-protein kinase 17B (Homo sapiens) (UniProt O94768); assay: Inhibition of DNA-tagged human DRAK2 assessed as percent of control at 50000 nM by qPCR analysis relative to control
[19] = biological target: Receptor-interacting serine/threonine-protein kinase 1 (Homo sapiens) (UniProt Q13546); assay: Inhibition of DNA-tagged human RIPK1 assessed as percent of control at 50000 nM by qPCR analysis relative to control
[20] = biological target: Rhodopsin kinase GRK1 (Homo sapiens) (UniProt Q15835); assay: Inhibition of DNA-tagged human GRK1 assessed as percent of control at 50000 nM by qPCR analysis relative to control
Sequence of Rhodopsin kinase GRK1 (Homo sapiens) (Q15835 whole entry, canonical isoform): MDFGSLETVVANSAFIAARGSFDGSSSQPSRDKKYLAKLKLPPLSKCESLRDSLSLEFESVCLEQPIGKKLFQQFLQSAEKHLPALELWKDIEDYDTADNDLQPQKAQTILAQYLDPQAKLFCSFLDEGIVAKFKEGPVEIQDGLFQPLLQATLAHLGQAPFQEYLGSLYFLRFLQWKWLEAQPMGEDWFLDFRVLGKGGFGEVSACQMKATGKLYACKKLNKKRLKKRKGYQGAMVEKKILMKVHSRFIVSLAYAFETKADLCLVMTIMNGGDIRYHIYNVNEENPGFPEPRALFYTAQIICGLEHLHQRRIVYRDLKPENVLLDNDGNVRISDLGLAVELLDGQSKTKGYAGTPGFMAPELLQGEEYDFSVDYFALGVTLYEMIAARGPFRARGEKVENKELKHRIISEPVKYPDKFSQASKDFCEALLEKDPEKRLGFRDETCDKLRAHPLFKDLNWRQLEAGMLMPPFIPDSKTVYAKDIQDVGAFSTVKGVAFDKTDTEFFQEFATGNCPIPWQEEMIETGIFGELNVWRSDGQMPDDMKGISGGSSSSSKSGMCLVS

[21] = biological target: Phosphatidylinositol 4,5-bisphosphate 3-kinase catalytic subunit delta isoform (Homo sapiens) (UniProt O00329); assay: Inhibition of DNA-tagged human PIK3CD assessed as percent of control at 50000 nM by qPCR analysis relative to control
[22] = biological target: SRSF protein kinase 1 (Homo sapiens) (UniProt Q96SB4); assay: Inhibition of DNA-tagged human SRPK1 assessed as percent of control at 50000 nM by qPCR analysis relative to control
[23] = biological target: Non-receptor tyrosine-protein kinase TYK2 (Homo sapiens) (UniProt P29597); assay: Inhibition of DNA-tagged human TYK2 JH1 catalytic domain assessed as percent of control at 50000 nM by qPCR analysis relative to control
[24] = biological target: Insulin-like growth factor 1 receptor (Homo sapiens) (UniProt P08069); assay: Inhibition of DNA-tagged human IGF1R assessed as percent of control at 50000 nM by qPCR analysis relative to control
[25] = biological target: Mitogen-activated protein kinase kinase kinase kinase 3 (Homo sapiens) (UniProt Q8IVH8); assay: Inhibition of DNA-tagged human MAP4K3 assessed as percent of control at 50000 nM by qPCR analysis relative to control
Sequence of Mitogen-activated protein kinase kinase kinase kinase 3 (Homo sapiens) (Q8IVH8 whole entry): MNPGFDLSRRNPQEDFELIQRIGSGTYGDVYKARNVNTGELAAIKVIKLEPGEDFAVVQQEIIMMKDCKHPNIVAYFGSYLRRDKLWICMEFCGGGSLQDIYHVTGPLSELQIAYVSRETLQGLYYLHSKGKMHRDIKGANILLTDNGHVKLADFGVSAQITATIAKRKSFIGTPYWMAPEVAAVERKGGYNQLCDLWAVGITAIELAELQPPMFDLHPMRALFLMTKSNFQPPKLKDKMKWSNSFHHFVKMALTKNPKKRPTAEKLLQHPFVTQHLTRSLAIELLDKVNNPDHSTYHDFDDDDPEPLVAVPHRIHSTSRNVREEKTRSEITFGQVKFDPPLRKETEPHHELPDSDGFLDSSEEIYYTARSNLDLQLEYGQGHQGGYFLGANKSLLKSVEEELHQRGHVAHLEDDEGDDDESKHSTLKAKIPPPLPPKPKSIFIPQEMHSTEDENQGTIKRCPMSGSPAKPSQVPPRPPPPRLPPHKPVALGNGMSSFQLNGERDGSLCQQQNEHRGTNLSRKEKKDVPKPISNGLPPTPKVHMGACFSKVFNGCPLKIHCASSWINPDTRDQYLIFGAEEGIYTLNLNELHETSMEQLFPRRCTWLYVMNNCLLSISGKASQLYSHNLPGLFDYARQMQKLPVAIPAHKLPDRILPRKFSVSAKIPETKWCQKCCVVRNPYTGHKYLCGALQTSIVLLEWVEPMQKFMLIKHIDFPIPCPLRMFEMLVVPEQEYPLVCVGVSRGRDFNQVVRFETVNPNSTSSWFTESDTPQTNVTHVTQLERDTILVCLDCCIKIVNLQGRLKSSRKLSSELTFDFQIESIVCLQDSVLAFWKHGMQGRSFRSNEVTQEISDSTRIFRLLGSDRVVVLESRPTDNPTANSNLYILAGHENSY

[26] = system: Tyrosine-protein kinase ABL1 (Homo sapiens), P00519 [Q252H]; assay: Inhibition of DNA-tagged phosphorylated human ABL1 Q252H mutant assessed as percent of control at 50000 nM by qPCR analysis relative to control
[27] = biological target: Serine/threonine-protein kinase 10 (Homo sapiens) (UniProt O94804); assay: Inhibition of DNA-tagged human LOK assessed as percent of control at 50000 nM by qPCR analysis relative to control
Sequence of Serine/threonine-protein kinase 10 (Homo sapiens) (O94804 whole entry, looked up): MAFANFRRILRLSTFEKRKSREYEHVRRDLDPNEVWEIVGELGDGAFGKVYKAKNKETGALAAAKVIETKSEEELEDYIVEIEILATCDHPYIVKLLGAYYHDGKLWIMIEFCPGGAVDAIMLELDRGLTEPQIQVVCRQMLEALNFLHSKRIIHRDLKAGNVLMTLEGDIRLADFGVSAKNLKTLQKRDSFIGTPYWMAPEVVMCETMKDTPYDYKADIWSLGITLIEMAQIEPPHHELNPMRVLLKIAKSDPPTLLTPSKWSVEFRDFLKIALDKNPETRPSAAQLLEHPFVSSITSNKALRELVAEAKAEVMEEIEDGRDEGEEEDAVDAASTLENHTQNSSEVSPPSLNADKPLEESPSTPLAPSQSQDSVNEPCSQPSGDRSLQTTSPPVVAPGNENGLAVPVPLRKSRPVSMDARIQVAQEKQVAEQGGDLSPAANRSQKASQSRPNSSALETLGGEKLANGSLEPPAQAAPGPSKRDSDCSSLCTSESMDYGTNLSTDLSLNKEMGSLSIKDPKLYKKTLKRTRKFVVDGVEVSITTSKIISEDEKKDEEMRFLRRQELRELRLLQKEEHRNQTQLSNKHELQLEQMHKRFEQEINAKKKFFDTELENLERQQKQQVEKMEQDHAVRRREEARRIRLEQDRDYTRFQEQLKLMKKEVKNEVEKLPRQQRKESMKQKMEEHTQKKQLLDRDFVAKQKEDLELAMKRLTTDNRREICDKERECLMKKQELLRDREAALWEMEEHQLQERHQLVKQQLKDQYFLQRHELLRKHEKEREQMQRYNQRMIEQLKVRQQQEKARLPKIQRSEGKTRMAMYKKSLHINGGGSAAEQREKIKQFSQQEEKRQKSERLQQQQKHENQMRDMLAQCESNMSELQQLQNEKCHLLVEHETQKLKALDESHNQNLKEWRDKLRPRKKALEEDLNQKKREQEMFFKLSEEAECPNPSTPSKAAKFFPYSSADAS

[28] = biological target: Bone morphogenetic protein receptor type-1A (Homo sapiens) (UniProt P36894); assay: Inhibition of DNA-tagged human BMPR1A assessed as percent of control at 50000 nM by qPCR analysis relative to control
[29] = biological target: Tyrosine-protein kinase ABL1 (Homo sapiens) (UniProt P00519); assay: Inhibition of DNA-tagged non-phosphorylated human ABL1 assessed as percent of control at 50000 nM by qPCR analysis relative to control

CN1C(=O)/C(=C2/C(=O)Nc3ccccc32)c2ccccc21
Activity [1]: 100% | Activity [2]: 100% | Activity [3]: 100% | Activity [4]: 100% | Activity [5]: 100% | Activity [6]: 85% | Activity [7]: 92% | Activity [8]: 83% | Activity [9]: 99% | Activity [10]: 100% | Activity [11]: 100% | Activity [12]: 66% | Activity [13]: 81% | Activity [14]: 95% | Activity [15]: 81% | Activity [16]: 89% | Activity [17]: 100% | Activity [18]: 100% | Activity [19]: 95% | Activity [20]: 100% | Activity [21]: 95% | Activity [22]: 100% | Activity [23]: 77% | Activity [24]: 100% | Activity [25]: 90% | Activity [26]: 100% | Activity [27]: 100% | Activity [28]: 100% | Activity [29]: 100%

— ChEMBL document CHEMBL4804284
